In assay [1] the test system is mesenteric resistance arteries. The assay can be described thus: Ca2+-induced relaxation of isolated mesenteric resistance arteries (wire myograph). Details: species or system rat. The source says: Branch I and II mesenteric resistance arteries, internal diameter […], are isolated from the mesenteric arcade of male Wistar rats and placed in ice cold physiologic salt solution (PSS) of the following composition in mM: NaCl, 130-140; KCl, 4.7; MgSO4.7H2 O, 1.17; NaHCO3, 5-15; KH2 PO4, 1.15 and Na2 HPO4, 1.10, CaCl2, 1.0; HEPES, 50; and glucose, 5, with a pH of 7.4 when gassed with 95% air, 5% CO2.
After cleaning of fat and connective tissue, the arterial segments are denuded of endothelium by rubbing a human hair in and out of the lumen. The vessel segments are then mounted between a force transducer and translation stage of a wire myograph using tungsten wire and the PSS is warmed to 37° C. and gassed with 95% air, 5% CO2 to provide a pH of 7.4. The vessel segments are then stretched to a length which is equivalent to an internal diameter of […] and allowed to equilibrate for 30 minutes. […]
Mesenteric resistance artery segments are isolated from sham treated and denervated rats and prepared for measurement of isometric force generation using the wire myograph system. […] For each vessel, the maximal level of relaxation is recorded and used for comparisons. At the end of the protocol, the ability of the vessel to relax in response to addition of sodium nitroprusside (SNP) is assessed to determine the ability to relax in response to a non-neural stimulus. […]

For assay [2], the system named is renal artery segment pre-contracted with norepinephrine. The assay can be described thus: Superfusion bioassay with renal artery segment. Details: species or system rat. An excerpt: The renal artery used as the bioassay segment was isolated and mounted between a fixed support and a force transducer and the lack of response to addition of Ca^2+ was verified (FIG. 9A). The bioassay segment was then superfused with PSS that was allowed to drip across a mesenteric arcade attached to PE-10 tubing; the cut ends of the arcade were tied with suture material to prevent egress of endothelium-derived factors. […] To further examine the possibility that a diffusible substance was released from the mesenteric arcade in response to 5 mM Ca^2+, the superfusate was collected and stored on ice for approximately 45 minutes. The bioassay segment was then returned to the organ chamber, recontracted with norepinephrine and the response to Ca^2+ and to the collected superfusate were assessed.

In assay [3] the test system is mesenteric resistance arteries. Put plainly: Isometric force/active stress of Ca2+-depleted mesenteric resistance arteries. Details: species or system Wistar rat. The protocol:
In the course of studies designed to examine the hypothesis that the Ca^2+ force relationship of resistance arteries is altered in genetically hypertensive rats, it was discovered that physiologic concentrations of extracellular Ca^2+ affected the repeated contraction elicited by norepinephrine in Ca^2+ -free medium.
(§1) Mesenteric resistance arteries were isolated from Wistar rats; and intracellular Ca^2+ and isometric force were measured using a fura-based method and w ire myography (Bian, et aL, 1995b). Vessels were depleted of releasable Ca^2+ by repeated contraction with norepinephrine; and extracellular Ca^2+ was then cumulatively added back from 0.025-2.5 mmol/L in the presence of a n agonist. […] It was concluded that extracellular Ca^2+ limits force generation by depressing myofilament Ca^2+ sensitivity and decreasing intracellular Ca^2+ secondary to activation of a Ca^2+ -sensitive K^+ channel.

For assay [4], the system named is intracellular Ca^2+ of mesenteric resistance arteries. The assay can be described thus: Intracellular Ca2+ (fura-based) of mesenteric resistance arteries. Set-up: species or system Wistar rat. The note with it: 1.6 and 2.5 mmol/L Ca2+. As to the method:
as §1

The subject of assay [5] is mesenteric resistance arteries of SHR and WKY. Put plainly: Response to norepinephrine of SHR and WKY mesenteric resistance arteries at different extracellular Ca2+. Details: species or system rat (SHR and WKY). The note with it: 1.5 and 2.5 vs 1.25 mmol/L Ca2+, both strains. As to the method: In an initial series of experiments the isometric force response of mesenteric resistance arteries of SHR and WKY was assessed to cumulative addition of norepinephrine in the presence of 1.25, 1.5 and 2.5 mmol/L extracellular Ca^2+ (Li, J., et al., 1993).

For assay [6], the system named is mesenteric resistance arteries. The conditions noted are these: cited from earlier work.
Assay [7] concerns blood pressure. The note with it: SHR; cited from earlier work.
In assay [8] the test system is blood pressure. The note with it: cited from earlier work.
For assay [9], the system named is rat tail arteries. The note with it: raising Ca2+ from 4.1 to 20.1 mmol/L; cited from earlier work.
Assay [10] has as its system rat aorta. The conditions noted are these: cited from earlier work.
The subject of assay [11] is cremaster arterioles. The conditions noted are these: Ca2+ 0 to 5.1 mM; cited from earlier work.
The test system of assay [12] is mammalian arteries. The note with it: slightly supraphysiologic concentrations; cited from earlier work.
Assay [13] relates to aorta. The note with it: high extracellular Ca2+; cited from earlier work.
In assay [14] the test system is Ca^2+-induced relaxation of mesenteric resistance arteries. Put plainly: Inhibition of Ca2+-induced relaxation of mesenteric resistance arteries by antagonists or denervation. Set-up: species or system rat.
Assay [15] has as its system CGRP nerve fiber density of mesenteric resistance arteries. The assay can be described thus: CGRP nerve staining/density after capsaicin-induced sensory denervation. The assay is classed as in vivo, rat. As to the method: (§2) Pregnant rats are received at 15 days gestation and pups are delivered in a vivarium. On the first and second days of life, each pup is lightly anesthetized with halothane and given s.c. injection of capsaicin (50 mg/kg) or vehicle. The rats are then kept until 7-9 weeks of age at which time they are euthanized and tissue isolated. Sub-acute regional nerve destruction is performed. […] The would is closed and the rats are allowed to recover for three days following which branches leading from the treated vessel segments are harvested for study. For each procedure, two methods are used to verify denervation of the arteries. One is a functional assay in which arteries isolated from sham or denervated rats are electrically stimulated under conditions that selectively activate perivascular sensory dilator nerves; the second is an immunocytochemical approach.
At 8 weeks of age the rats were killed and whole mount preparations of mesenteric resistance arteries were prepared, stained with polyclonal anti-calcitonin gene related peptide (CGRP), which is the primary sensory nerve transmitter, and quantified using stereomorphologic methods (Schmidt-Schoenbein et al., 1977).

Assay [16] relates to perivascular CaR. Put plainly: Perivascular CaR expression after capsaicin-induced denervation. The assay is classed as in vivo, rat. The conditions noted are these: KK3 antiserum. The protocol: as §2, with “One is a functional assay in which arteries isolated from sham or denervated rats are electrically stimulated under conditions that selectively activate perivascular sensory dilator nerves; the second is an immunocytochemical approach.” left out
The effect of sensory denervation on perivascular nerve CaR expression is assessed using western blot analysis. […] The membranes are then stained with monoclonal anti-parathyroid CaR (1:7500) and anti-smooth muscle α-actin, then visualized using the enhanced chemiluminescence, and quantified using laser densitometry. The relative expression of CaR in each sample is then assessed as the ratio of the density of CaR staining; α-actin staining. […]
The results have been presented (Mupanomunda et al., 1997). Additional studies quantify the effect of capsaicin-induced denervation on CaR content using western blot analysis.

For assay [17], the system named is neurogenic inflammation. The note with it: denervation and desensitization by treatment with capsaicin; cited from earlier work.

“Also recorded” adds a separate entry of the source.

Turning to `[Ca+2]` [Ca^2+], in assay [1] (5 μM norepinephrine), the “relationship of 3 mM Ca2+-induced relaxation with CaR content” value is given as “positively correlated”. For the same molecule, the “relaxation response of precontracted artery to Ca2+” value in assay [1] (1.5, 2, 3, 5, 7.5 and 10 mmol/L) was “biphasic relaxation response”. For the same molecule, the “effect on renal artery bioassay segment when superfused over the donor segment” value in [2] (5 mM Ca2+) is “caused relaxation”. In addition, the “direct effect on bioassay (renal artery) vessel” value in assay [2] (5 mM Ca2+ added directly) was “without effect; also recorded: absence of response”. In [2] (Ca2+ 1.5-5.0 mM), the “direct effect on renal artery vessel after recontraction” value was “no effect”. Also, the effect on force entry in [3] (Ca2+ between 0.01 and 0.8 mmol/L) is “increase in force”. Further, the “steady state force and Ca2+ in” value in [3] (Ca2+ from 0.8 to 1.6, FIG. 2) is “decreased steady state force but not steady state Ca^2+in”. Besides, the “effect on active stress” value in assay [3] (norepinephrine, serotonin and PGF2α contraction, not K+, 0.8 to 1.6 and 1.6 to 2.5 mmol/L) is recorded as “decreased active stress”. Also, in assay [3] (raising Ca2+ from 0.8 to 1.6 or 1.6 to 2.5 mmol/L), the effect on force result was “caused relaxation; also recorded: decrease in force and Ca^2+”. The “steady state intracellular Ca2+” value in assay [4] is reported as “only decreased significantly in response to 2.5 mmol/L extracellular Ca^2+”. In addition, the “response to low dose norepinephrine” value in assay [5] was “significantly depressed”. Further, in assay [6] (cumulatively raising extracellular Ca2+ above 1.5 mM, n=12, read-out: ED50 value of Ca2+-induced relaxation), the EC50 was 2400 ± 170 µM. The extent of relaxation result in [6] (raising extracellular Ca2+ above 1.5 mM) is “nearly complete relaxation”. Also, the “effect on isolated arteries” value in [6] (raising extracellular Ca2+ from 1.0 mM to 1.5 mM) is “relaxes isolated arteries”. Further, the “effect of elevated dietary calcium intake on blood pressure” value in assay [7] is on record as “lowers blood pressure”. Moreover, the “blood pressure lowering effect of Ca2+ supplementation” value in assay [8] (clinical trials, overall) is listed as “small overall blood pressure lowering effect”. For the same molecule, the “blood pressure response to Ca2+ supplementation in sub-groups” value in [8] (sub-groups) was “significant fall in blood pressure”. For the same molecule, the “effect on rat tail arteries” value in assay [9] is listed as “relaxes rat tail arteries”. In assay [10], the “effect of extracellular Ca2+ on K+-induced contraction” value was “depressed”. Further, the “effect on cremaster arterioles” value in assay [11] was “graded contraction”. In addition, in assay [12], the “effect on force generation” value was “depress force generation”. In addition, in [13], the “effect on early force response of the aorta to epinephrine” value was “suppress the early force response” and the “effect on later steady state response of the aorta” value was “enhanced”.

Consider `COc1cc(CNC(=O)CCCC/C=C/C(C)C)ccc1O` [capsaicin], for which the “effect on Ca2+-induced relaxation” value was “inhibited/reversed” in assay [14] (20 minutes pre-treatment, 10 μM capsaicin) and “attenuates; also recorded: significantly attenuated” in [14] (chronic capsaicin-induced sensory denervation). In assay [15] (capsaicin denervation), the “effect on staining for CGRP” value is on record as “significantly decreases”. Also, in [15] (neonatal capsaicin (50 mg/kg s.c.), 8 weeks of age), the “reduction in CGRP nerve fiber density” value is on record as 40%. In addition, in assay [16], the “effect on staining for perivascular CaR” value was “significantly decreases”. Also, the “effect of treatment on neurogenic inflammation” value in assay [17] is “prevented”.

The values above are taken from patent US6184254A, “Methods of identifying modulators of perivascular sensory nerve Ca2+ receptors” (priority 1998, dated 2001).
